# From patent US4450155A, “Analgesic dipeptide amides and method of use and compositions thereof” (Sterling Drug Inc., priority 1982, dated 1984)
# Like-named read-outs stand apart in the source and are kept apart here. Where a SMILES comes first, the peptide text is derived from it. The star is where a group is joined. NHPhenethyl = c1ccc(CCN*)cc1
# Columns and labels:
# [1] = tested on: guinea pig ileum longitudinal muscle with adhering myenteric plexus; assay: Guinea pig ileum test (electrically stimulated longitudinal muscle, inhibition of twitch height); assay type: cell-based; conditions: ratio of IC50 of reference compound Met^5-enkephalin to IC50 of test compound in the same preparation, averaged (N=4); reference given as 100
# Experimental: Adult male guinea pigs (Charles River, Hartley strain) weighing 300-500 g. are decapitated, and the terminal ileum is exposed by reflecting the overlying cecum, severed at the ileocecal juncture, and removed while cutting the mesenteric attachments to avoid excessive traction on the tissue. The ileum (about 30 cm. in length) is transferred to a beaker containing warm modified Krebs-Henseleit solution (118 mM sodium chloride, 4.75 mM potassium chloride, 2.54 mM calcium chloride, 1.19 mM potassium dihydrogen phosphate, 1.2 mM magnesium sulfate, 25 mM sodium bicarbonate, 11 mM glucose, 20 μM choline chloride and 0.125 μM pyrilamine maleate). The terminal (aboral) portion (about 10 cm. in length) is discarded, and segments (3-4 cm. in length) are cut from the remainder and gently slid onto a glass rod (5-6 mm. in diameter) and arranged so that the mesenteric attachment is in a straight line. A cotton swab moistened in the solution is then carefully used to separate the longitudinal muscle from the underlying circular muscle. The longitudinal muscle and adhering myenteric plexus is then gently removed from the remaining tissue with forceps.
# Strips of this prepared longitudinal muscle are mounted in a double-jacketed organ bath (5 ml.) under tension (1.0 g.), connected to isometric transducers (Grass FT .03), bathed in the modified Krebs-Henseleit solution described above, aerated with oxygen-carbon dioxide (95:5) and maintained at 37° C.
# Stimulators (Grass S-44) are set to deliver repetitive monophasic square wave field stimulation (supramaximal voltage, 0.10 Hz., 0.25 msec. duration) through platinum ring electrodes at the top and bottom of the bath. Regular contractions of the muscle, which result from electrically-induced liberation of acetylcholine from postganglionic parasympathetic nerves, are recorded on a polygraph (Grass model 5). Following tissue equilibration (45-60 min.) and repeated washing (every 10 min.) an aqueous solution of a reference or test compound is added to the bath in a microliter volume (1.25-250 μl) and reductions in muscle twitch height are recorded. More compound can be added […] first washing the preparation.
# From the results a half-maximal inhibitory concentration (IC50) value for the compound is computed by regression analysis of a linear plot of logarithm of concentration against percent of inhibition of twitch height (probits). The ratio of the IC50 value of a reference compound to that of a test compound tested in the same preparation is the molar potency ratio. Usually four preparations are tested simultaneously by the same person (N=4), and the resulting four molar potency ratios are averaged. […]
# [2] = tested on: opiate receptor; conditions: rat brain membranes, relative to morphine; cited from earlier work
# [3] = tested on: rat; conditions: relative to morphine, cited from earlier work
# [4] = tested on: mouse vas deferens; conditions: mouse vas deferens test; cited from earlier work
# [5] = tested on: guinea pig ileum; conditions: guinea pig ileum test; cited from earlier work
molecule,measurement,setting,value
"N[C@@H](Cc1ccc(O)cc1)C(=O)N1CCC[C@H]1C(=O)NCCCc1ccccc1 [Example 2, L-tyrosyl-N-(3-phenylpropyl)-L-prolinamide]",Average Molar Potency Ratio,[1],6
Met^5 -enkephalin [Met^5 --enkephalin],Average Molar Potency Ratio,[1],100
"CN(CCCc1ccccc1)C(=O)[C@@H]1CCCN1C(=O)[C@@H](N)Cc1ccc(O)cc1 [Example 3, L-tyrosyl-N-methyl-N-(3-phenylpropyl)-L-prolinamide]",Average Molar Potency Ratio,[1],9
C[C@@H](NC(=O)[C@@H](N)Cc1ccc(O)cc1)C(N)=O [H-Tyr-D-Ala-NH2],"times less affinity than morphine, opiate receptor binding",[2],830 times
same,"times less potent than morphine, tail flick test",[3]; intravenously,greater than 10 times
same,"times less potent than morphine, tail flick test",[3]; intraventricularly,200 times
C[C@@H](NC(=O)[C@@H](N)Cc1ccc(O)cc1)C(=O)NCCNCCc1ccccc1 [HTyrD-AlaNH(CH2)2 NH(CH2)2 Phenyl],potency relative to Met-enkephalin,[4],< 1%
same,potency relative to Met-enkephalin,[5],< 1%
"N[C@@H](Cc1ccc(O)cc1)C(=O)N1CCC[C@H]1C(=O)NCCc1ccccc1 [Example 1, L-tyrosyl-N-(2-phenylethyl)-L-prolinamide] (H-Tyr-Pro-NHPhenethyl)",Average Molar Potency Ratio,[1],117
